Measurements as given in patent publication US20050112573A1, “Method of detecting toxic substance” (priority 2001, published 2005).

Test system: yeast genes (level of expressed mRNA)
Assay: DNA chip analysis of expressed mRNA of yeast genes after 2 h culture with a toxic chemical substance
Assay type: cell-based, Saccharomyces cerevisiae S288C
Procedure, shortened: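 S. cerevisiae S288C grown at 25° C in YPD; toxicant added at log phase at growth-inhibitory, non-lethal levels for 2 h, untreated cells as control. Poly(A) mRNA reverse-transcribed with Cy3/Cy5-dUTP, hybridized to whole-genome chip at 65° C >12 h; value is fluorescence ratio versus untreated.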

## γ-hexachlorocyclohexane [(7)]
Yeast gene YNL074C, ratio to control without chemical substance, 2 h culture
  The level of expressed mRNA in the presence of chemical substance/: 1.1
Yeast gene YNL092W, ratio to control without chemical substance, 2 h culture
  The level of expressed mRNA in the presence of chemical substance/: 1.6
Yeast gene YNL093W
  The level of expressed mRNA in the presence of chemical substance/The level of expressed mRNA in the absence of chemical substance: 1.4
Yeast gene YNL115C, ratio to control without chemical substance, 2 h culture
  The level of expressed mRNA in the presence of chemical substance/: 2.4
Yeast gene YNL156C, ratio to control without chemical substance, 2 h culture
  The level of expressed mRNA in the presence of chemical substance/: 1.9
Yeast gene YNL234W, ratio to control without chemical substance, 2 h culture
  The level of expressed mRNA in the presence of chemical substance/: 1.2
Yeast gene YNL281W, ratio to control without chemical
  The level of expressed mRNA in the presence of chemical substance/: 1.2
Yeast gene YNL305C, ratio to control without chemical
  The level of expressed mRNA in the presence of chemical substance/: 1.7
Yeast gene YNL333W
  The level of expressed mRNA in the presence of chemical substance/The level of expressed mRNA in the absence of chemical substance: 2.9
Yeast gene YNR010W
  The level of expressed mRNA in the presence of chemical substance/The level of expressed mRNA in the absence of chemical substance: 1.5
Yeast gene YNR068C, ratio to control without chemical
  The level of expressed mRNA in the presence of chemical substance/: 1.8
Yeast gene YNR069C
  The level of expressed mRNA in the presence of chemical substance/The level of expressed mRNA in the absence of chemical substance: 1.4
Yeast gene YNR072W
  The level of expressed mRNA in the presence of chemical substance/in the absence of chemical substance: 1.5
Yeast gene YOL013C
  The level of expressed mRNA in the presence of chemical substance/The level of expressed mRNA in the absence of chemical substance: 1.7
Yeast gene YOL032W, ratio to control without chemical
  The level of expressed mRNA in the presence of chemical substance/: 1.4
Yeast gene YOL036W, ratio to control without chemical
  The level of expressed mRNA in the presence of chemical substance/: 1.0
Yeast gene YOL047C, ratio to control without chemical
  The level of expressed mRNA in the presence of chemical substance/: 1.3
Yeast gene YOL071W, ratio to control without chemical
  The level of expressed mRNA in the presence of chemical substance/: 2.0
Yeast gene YOL082W, ratio to control without chemical
  The level of expressed mRNA in the presence of chemical substance/: 2.5
Yeast gene YOL083W, ratio to control without chemical
  The level of expressed mRNA in the presence of chemical substance/: 3.1
Yeast gene YOL096C
  The level of expressed mRNA in the presence of chemical substance/in the absence of chemical substance: 1.7
Yeast gene YOL117W, ratio to control without chemical
  The level of expressed mRNA in the presence of chemical substance/: 1.6
Yeast gene YOL131W, ratio to control without chemical
  The level of expressed mRNA in the presence of chemical substance/: 1.3
Yeast gene YOL150C, ratio to control without chemical substance, 2 h culture
  The level of expressed mRNA in the presence of chemical substance/: 2.4
Yeast gene YOL162W, ratio to control without chemical
  The level of expressed mRNA in the presence of chemical substance/: 2.0
Yeast gene YOL164W
  The level of expressed mRNA in the presence of chemical substance/The level of expressed mRNA in the absence of chemical substance: 2.2
Yeast gene YOR019W, ratio to control without chemical
  The level of expressed mRNA in the presence of chemical substance/: 2.8
Yeast gene YOR036W
  The level of expressed mRNA in the presence of chemical substance/The level of expressed mRNA in the absence of chemical substance: 1.8
Yeast gene YOR117W
  The level of expressed mRNA in the presence of chemical substance/The level of expressed mRNA in the absence of chemical substance: 3.3
Yeast gene YOR124C
  The level of expressed mRNA in the presence of chemical substance/The level of expressed mRNA in the absence of chemical substance: 1.1
Yeast gene YOR132W
  The level of expressed mRNA in the presence of chemical substance/The level of expressed mRNA in the absence of chemical substance: 1.4
Yeast gene YOR157C
  The level of expressed mRNA in the presence of chemical substance/The level of expressed mRNA in the absence of chemical substance: 1.2
Yeast gene YOR180C
  The level of expressed mRNA in the presence of chemical substance/in the absence of chemical substance: 0.8
Yeast gene YOR181W
  The level of expressed mRNA in the presence of chemical substance/The level of expressed mRNA in the absence of chemical substance: 0.7
Yeast gene YOR185C
  The level of expressed mRNA in the presence of chemical substance/The level of expressed mRNA in the absence of chemical substance: 1.3
Yeast gene YOR197W, ratio to control without chemical
  The level of expressed mRNA in the presence of chemical substance/: 0.9
Yeast gene YOR198C
  The level of expressed mRNA in the presence of chemical substance/The level of expressed mRNA in the absence of chemical substance: 1.6
Yeast gene YOR259C
  The level of expressed mRNA in the presence of chemical substance/The level of expressed mRNA in the absence of chemical substance: 1.3
Yeast gene YOR261C
  The level of expressed mRNA in the presence of chemical substance/The level of expressed mRNA in the absence of chemical substance: 1.9
Yeast gene YOR288C
  The level of expressed mRNA in the presence of chemical substance/The level of expressed mRNA in the absence of chemical substance: 2.0
Yeast gene YOR355W
  The level of expressed mRNA in the presence of chemical substance/The level of expressed mRNA in the absence of chemical substance: 1.1
Yeast gene YOR363C
  The level of expressed mRNA in the presence of chemical substance/in the absence of chemical substance: 0.7
Yeast gene YOR383C
  The level of expressed mRNA in the presence of chemical substance/The level of expressed mRNA in the absence of chemical substance: 8.0
Yeast gene YPL087W, ratio to control without chemical
  The level of expressed mRNA in the presence of chemical substance/: 4.2
Yeast gene YPL089C
  The level of expressed mRNA in the presence of chemical substance/The level of expressed mRNA in the absence of chemical substance: 0.9
Yeast gene YPL109C
  The level of expressed mRNA in the presence of chemical substance/The level of expressed mRNA in the absence of chemical substance: 1.8
Yeast gene YPL149W
  The level of expressed mRNA in the presence of chemical substance/The level of expressed mRNA in the absence of chemical substance: 1.2
Yeast gene YPL154C
  The level of expressed mRNA in the presence of chemical substance/The level of expressed mRNA in the absence of chemical substance: 1.5
Yeast gene YPL196W, ratio to control without chemical
  The level of expressed mRNA in the presence of chemical substance/: 2.4
Yeast gene YPL206C, ratio to control without chemical
  The level of expressed mRNA in the presence of chemical substance/: 1.2
Yeast gene YPL222W, ratio to control without chemical
  The level of expressed mRNA in the presence of chemical substance/: 1.1
Yeast gene YPR023C, ratio to control without chemical
  The level of expressed mRNA in the presence of chemical substance/: 1.2
Yeast gene YPR103W
  The level of expressed mRNA in the presence of chemical substance/The level of expressed mRNA in the absence of chemical substance: 1.6
Yeast gene YPR108W
  The level of expressed mRNA in the presence of chemical substance/The level of expressed mRNA in the absence of chemical substance: 1.6
Yeast gene YPR151C, ratio to control without chemical
  The level of expressed mRNA in the presence of chemical substance/: 4.4
Yeast gene YPR184W
  The level of expressed mRNA in the presence of chemical substance/in the absence of chemical substance: 1.3
